From publication PMC5666694 (Antiviral research, 2017)
Structures can show the parent of a compound that is named as a salt.

Tested on: HIV/EBOV pseudovirion
Format: cell-based, Ebolavirus Zaire

| SMILES | Antiviral effect by time of compound addition |
| --- | --- |
| Cc1cn([C@H]2C[C@H](N=[N+]=[N-])[C@@H](CO)O2)c(=O)[nH]c1=O [AZT, Azidothymidine] | still effective even when it was introduced at a very late time points (>8 h) |
| CN1[C@@H]2CC[C@H]1C[C@@H](OC(c1ccccc1)c1ccccc1)C2 [benztropine, Benztropine mesylate] | started to lose its inhibitory effect when it was added at 2 h post entry and beyond |
